According to PMC12200682 (PLOS One, 2025):

Key:
NCI-N87 = assay: Cell viability assay, NCI-N87; format: cell-based; settings: Homo sapiens, NCI-N87, 144 h, read-out: IC50 cytotoxicity
Description: (§1) Cells were seeded into 96-well plates at 1500 cells/well for SK-BR-3, JIMT-1, and NCI-N87, 800 cells/well for HCC1954, 600 cells/well for AGS and MKN-45, 2500 cells/well for MDA-MB-468 and Capan-1, and 1000 cells/well for SNU-16. After overnight incubation, a serially diluted solution of compounds or ADCs was added. Cell viability was evaluated after 6 days using CellTiter-Glo reagent (Promega) according to the manufacturer’s instructions. Luminescence was measured by PHERAstar (BMG LABTECH).

SK-BR-3 = assay: Cell viability assay, SK-BR-3; format: cell-based; settings: Homo sapiens, SK-BR-3, 144 h, read-out: IC50 cytotoxicity
Description: as §1

[1] = Pharmacokinetics of payload in mice; set-up: species or system C57BL/6 mice; settings: C57BL/6, mouse, in vivo, iv, 0.5 mg/kg
Description: All animal experiments at Shanghai Hengrui were approved by Shanghai Hengrui’s Institutional Animal Care and Use Committee. Studies were performed in accordance with ARRIVE guidelines. C57BL/6 mice (15–18 g body weight, n = 18) were purchased from Beijing Vital River Laboratory Animal Technology Co., Ltd and were held as described in details of mouse xenograft section. Compounds were administered intravenously at 0.5 mg/kg. Blood samples were collected at various time points after dosing. Mice were monitored daily for health condition and humane endpoint criteria. There were no unexpected animal deaths or humane endpoint criteria reached during the study. All of the animals were euthanized by using inhaled carbon dioxide at the end of study. The compound concentrations were determined by SCIEX Triple Quad 7500 LC-MS/MS System (SCIEX).

[2] = Parallel artificial membrane permeability (PAMPA) assay; format: in vitro ADME
Description: PAMPA assay was outsourced to Wuxi Apptech Co. Ltd. Briefly, donor plate, acceptor plate and receiver plate formed a sandwich and 200 µL of 5.0 µM donor solutions were added. The concentrations of compounds in both plates were measured by a LC-MS/MS system after 30 minutes. The permeability coefficient (Peff, nm/s) values at pH 5 and 7.4 were calculated.

[3] = Lipophilicity assay (chromatographic LogD); format: physicochemical; settings: pH 7.4
Description: Distribution coefficient (LogD, pH 7.4) was obtained by a high-throughput alternative method. Each compound was dissolved in DMSO at 10 mM. After centrifugation, the solution was measured by reversed-phase HPLC on a C18 column (50 × 4.6 mm, […] Gemini C18, Phenomenex) at pH 7.4, using fast gradient acetonitrile-aqueous buffer mobile phases. The lipophilicity was estimated from a calibration curve using six reference compounds by plotting their respectively measured retention time versus LogD in literature. The chromatographic LogD values were derived directly from the gradient retention time by using this calibration curve.

HCC1954 = assay: Cell viability assay, HCC1954; format: cell-based; settings: Homo sapiens, HCC1954, 144 h, read-out: IC50 cytotoxicity
Description: as §1

Capan-1 = assay: Cell viability assay, Capan-1; format: cell-based; settings: Homo sapiens, CAPAN-1, 144 h, read-out: IC50 cytotoxicity
Description: as §1

AGS = assay: Cell viability assay, AGS; format: cell-based; settings: Homo sapiens, 144 h, read-out: IC50 cytotoxicity
Description: as §1

JIMT-1 = assay: Cell viability assay, JIMT-1; format: cell-based; settings: Homo sapiens, JIMT-1, 144 h, read-out: IC50 cytotoxicity
Description: as §1

MDA-MB-468 = assay: Cell viability assay, MDA-MB-468; format: cell-based; settings: Homo sapiens, MDA-MB-468, 144 h, read-out: IC50 cytotoxicity
Description: as §1

human topoisomerase I = biological target: T1, human topoisomerase I (Homo sapiens, UniProt P11387); assay: Topoisomerase I inhibition assay; format: biochemical; settings: read-out: Top I inhibition (IC50)
T1 construct: purchased Inspiralis
T1 sequence (P11387 1-765): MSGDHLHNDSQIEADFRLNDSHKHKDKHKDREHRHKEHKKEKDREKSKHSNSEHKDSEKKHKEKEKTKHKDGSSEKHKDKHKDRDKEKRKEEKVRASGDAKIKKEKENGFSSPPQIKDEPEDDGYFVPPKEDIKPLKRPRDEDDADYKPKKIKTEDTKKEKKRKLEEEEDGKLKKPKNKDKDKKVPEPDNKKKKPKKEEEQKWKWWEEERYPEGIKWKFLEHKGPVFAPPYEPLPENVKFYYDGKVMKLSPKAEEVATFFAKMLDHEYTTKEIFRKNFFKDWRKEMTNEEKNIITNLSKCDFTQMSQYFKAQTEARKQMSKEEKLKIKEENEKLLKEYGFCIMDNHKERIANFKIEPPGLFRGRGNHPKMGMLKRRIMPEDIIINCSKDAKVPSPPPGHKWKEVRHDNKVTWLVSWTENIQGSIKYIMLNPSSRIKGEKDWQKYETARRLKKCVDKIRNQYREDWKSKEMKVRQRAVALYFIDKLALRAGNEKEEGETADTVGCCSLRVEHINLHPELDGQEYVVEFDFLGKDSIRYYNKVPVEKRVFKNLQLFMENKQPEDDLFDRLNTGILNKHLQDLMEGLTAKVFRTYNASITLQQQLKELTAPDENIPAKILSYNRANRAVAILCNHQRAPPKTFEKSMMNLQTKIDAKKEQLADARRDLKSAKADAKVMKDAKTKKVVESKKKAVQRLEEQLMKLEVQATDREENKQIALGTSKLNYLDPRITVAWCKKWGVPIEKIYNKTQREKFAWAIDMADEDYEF
Description: Topoisomerase I inhibition assay was outsourced to Wuxi Apptech Co. Ltd. Topoisomerase I activity was measured using human topoisomerase I microplate assay kit (Inspiralis), according to the manufacturer’s instructions.

[4] = Toxicokinetics in cynomolgus monkeys; format: in vivo; settings: for half-life: both sexes, cynomolgus monkey, in vivo, iv, 40 mg/kg
Description: GLP toxicology and toxicokinetics studies were outsourced to Shanghai InnoStar Bio-tech Co., Ltd. Studies were approved by InnoStar’s Institutional Animal Care and Use Committee and carried out in compliance with ARRIVE guidelines. Cynomolgus monkeys were housed in stainless steel cages at the study institution. The temperature and relative humidity of the room were recorded twice a day with ranged from 18 to 26°C and 40–70%, respectively. Ventilation was constantly operated with ≥ 8 times of air changes per hour. […] Monkey maintenance feed was purchased from qualified supplier with microorganisms, heavy metals and pesticide residues tested. During the study, all animals had ad libitum access to feed and clean deionized water except during specific fasting. […] All animals were acclimated to temperature and relative humidity-controlled environment for few days before randomization. Detailed clinical observation was performed on all cynomolgus monkeys once a day during the acclimation period. All of the animal care staff were trained to maximal reduce the pain of animals. Special training such as animal handling, proper injection for treatment/anesthesia, and painless death were taught to the staff.
Clinical signs, body weight, food consumption, and clinical pathology were monitored twice a day. […] Humane endpoint criteria were observed twice a day during study to examine health and behavior. Animals were sacrificed in less than a day once reached endpoint criteria. There were no unexpected animal deaths during the studies with 16-weeks duration. All of the animals were euthanized by intravenous injection of combination of zoletil and xylazine at the end of study for targeted organ and tissue examinations to evaluate toxicity or when the following humane endpoints were reached: severe injury, severe respiratory depression, severe weight loss, persistent anorexia, significant pain or stress, progressive pain leading to weakness, and persistent or continuous twitching. Final disposal of each animal was recorded on the study records.

MKN45 = assay: Cell viability assay, MKN45; format: cell-based; settings: Homo sapiens, MKN-45, 144 h, read-out: IC50 cytotoxicity
Description: as §1

nine cancer cell lines = assay: Cell viability assay, panel of nine cancer cell lines; format: cell-based; settings: Homo sapiens; independent of HER2 expression levels; read-out: IC50 values across nine cancer cell lines
Description: as §1

## CC[C@@]1(O)C(=O)OCc2c1cc1n(c2=O)Cc2c-1nc1cc(F)c(C)c3c1c2[C@@H](NC(=O)[C@H](O)C1CC1)CC3 [SHR169265]
NCI-N87
  IC50: 1 ± 0.07 nM
SK-BR-3
  IC50: 0.58 ± 0.1 nM
[1]
  AUC(0-t): 113 ng·h/mL
  Cmax: 250 ng/mL
  Vd: 1.81 L/kg
  clearance: 72.6 mL/min/kg
[1]; mice, i.v. injection
  half-life: 0.37 h
[2]; pH 5
  Papp at 30 min, 5 µM: 13.8 ×10⁻⁶ cm/s
[2]; pH 7.4
  Papp at 30 min, 5 µM: 7.16 ×10⁻⁶ cm/s
[3]
  chromatographic logD: 1.89
HCC1954
  IC50: 0.55 ± 0.19 nM
Capan-1
  IC50: 0.38 ± 0.07 nM
AGS
  IC50: 0.36 ± 0.11 nM
JIMT-1
  IC50: 2.32 ± 0.45 nM
MDA-MB-468
  IC50: 0.56 ± 0.09 nM
Human topoisomerase I
  IC50: 1340 nM
[4]; analyte after SHR-A1811 40 mg/kg i.v. every 3 weeks, Multiple vs single
  RacAUCINF: 1.07
[4]; analyte after SHR-A1811 40 mg/kg i.v. every 3 weeks, Multiple
  half-life: 101 h
[4]; analyte after SHR-A1811 40 mg/kg i.v., Single
  half-life: 107 h
MKN45
  IC50: 0.3 ± 0.07 nM
Nine cancer cell lines
  IC50: 0.3 to 2.32 nM
